# Measured values from paper PMC4303209, “A novel phosphatidylinositol 3-kinase (PI3K) inhibitor directs a potent FOXO-dependent, p53-independent cell cycle arrest phenotype characterized by the differential induction of a subset of FOXO-regulated genes” (Breast Cancer Research : BCR, 2014).
# Tested on: MCF-7 breast cancer cells
# Assay: Microarray gene expression analysis (Agilent whole human genome 4 x 44K; compound vs DMSO, LIMMA log2 fold change)
# Format: cell-based
# Details: Apoptosis genes
smiles,measurement,setting,value
Oc1cccc(-c2nc(N3CCOCC3)c3oc4ncccc4c3n2)c1 [PI-103],CTNNA1 log2FC,Gene 1495,0.421
same,CTNNB1 log2FC,Gene 1499,0.098
same,CTSB log2FC,Gene 1508,0.047
same,CTSH log2FC,Gene 1512,-0.000676
same,CTSL log2FC,Gene 1514,0.329
same,CX3CR1 log2FC,Gene 1524,0.187
same,CYLD log2FC,Gene 1540,0.377
same,DAB2 log2FC,Gene 1601,-0.118
same,DAD1 log2FC,Gene 1603,-0.506
same,DAP log2FC,Gene 1611,-0.163
same,DAPK1 log2FC,Gene 1612,0.477
same,DAPK3 log2FC,Gene 1613,-0.075
same,DBH log2FC,Gene 1621,-0.084
same,DCC log2FC,Gene 1630,-0.032
same,GADD45A log2FC,Gene 1647,-0.795
same,DDIT3 log2FC,Gene 1649,2.078
same,DDX3X log2FC,Gene 1654,-1.134
same,DDX5 log2FC,Gene 1655,-1.225
same,DFFA log2FC,Gene 1676,-0.256
same,DFNA5 log2FC,Gene 1687,-0.030
same,DHCR24 log2FC,Gene 1718,-0.730
same,DHODH log2FC,Gene 1723,-0.198
same,NQO1 log2FC,Gene 1728,-0.052
same,DLX1 log2FC,Gene 1745,-0.636
same,DNASE1 log2FC,Gene 1773,0.269
same,DNASE1L3 log2FC,Gene 1776,-0.152
same,DNASE2 log2FC,Gene 1777,0.667
same,DOCK1 log2FC,Gene 1793,0.305
same,DPEP1 log2FC,Gene 1800,0.033
same,ATN1 log2FC,Gene 1822,-0.173
same,DSG1 log2FC,Gene 1828,-0.439
same,DSG2 log2FC,Gene 1829,0.213
same,DSG3 log2FC,Gene 1830,-0.053
same,TSC22D3 log2FC,Gene 1831,0.499
same,DSP log2FC,Gene 1832,0.622
same,DUSP1 log2FC,Gene 1843,-0.801
same,DUSP2 log2FC,Gene 1844,-2.156
same,DUSP6 log2FC,Gene 1848,-1.955
same,E2F1 log2FC,Gene 1869,-0.119
same,E2F2 log2FC,Gene 1870,-0.377
same,ECT2 log2FC,Gene 1894,0.836
same,EDN1 log2FC,Gene 1906,0.126
same,EDNRA log2FC,Gene 1909,0.064
same,EDNRB log2FC,Gene 1910,-0.042
same,EEF1A2 log2FC,Gene 1917,0.203
same,EFNA5 log2FC,Gene 1946,-0.125
same,EGFR log2FC,Gene 1956,0.479
same,EGR1 log2FC,Gene 1958,-2.608
same,EGR2 log2FC,Gene 1959,-0.367
same,EPHA2 log2FC,Gene 1969,-1.806
same,EIF5A log2FC,Gene 1984,-0.261
same,ENDOG log2FC,Gene 2021,-0.245
same,EP300 log2FC,Gene 2033,-0.124
same,EPHA7 log2FC,Gene 2045,-0.025
same,CLN8 log2FC,Gene 2055,-0.236
same,EPO log2FC,Gene 2056,-0.136
same,ERBB3 log2FC,Gene 2065,0.809
same,ERBB4 log2FC,Gene 2066,0.106
same,ERCC2 log2FC,Gene 2068,-0.269
same,ERCC3 log2FC,Gene 2071,-0.108
same,ERCC5 log2FC,Gene 2073,0.823
same,ERCC6 log2FC,Gene 2074,0.488
same,ERN1 log2FC,Gene 2081,-0.108
same,ESR1 log2FC,Gene 2099,-0.048
same,ESR2 log2FC,Gene 2100,-0.062
same,ETS1 log2FC,Gene 2113,-0.820
same,EYA2 log2FC,Gene 2139,-0.257
same,F2R log2FC,Gene 2149,0.377
same,F3 log2FC,Gene 2152,-0.177
same,PTK2B log2FC,Gene 2185,0.175
same,FCER1G log2FC,Gene 2207,-0.541
same,FGD1 log2FC,Gene 2245,-0.255
same,FGF4 log2FC,Gene 2249,0.019
same,FGF8 log2FC,Gene 2253,-0.135
same,FGF10 log2FC,Gene 2255,-0.00185
same,FGFR1 log2FC,Gene 2260,-0.374
same,FGFR3 log2FC,Gene 2261,-0.164
same,FGFR2 log2FC,Gene 2263,1.806
same,FHIT log2FC,Gene 2272,-0.336
same,FHL2 log2FC,Gene 2274,-0.078
same,FOXC1 log2FC,Gene 2296,-0.767
same,FOXC2 log2FC,Gene 2303,-0.284
same,FLT3 log2FC,Gene 2322,0.120
same,FLT4 log2FC,Gene 2324,-0.157
same,FNTA log2FC,Gene 2339,0.629
same,FXN log2FC,Gene 2395,-0.514
same,FRZB log2FC,Gene 2487,0.040
same,FYN log2FC,Gene 2534,0.082
same,G6PD log2FC,Gene 2539,-0.156
same,GABRA5 log2FC,Gene 2558,-0.0016
same,GABRB2 log2FC,Gene 2561,-0.080
same,GABRB3 log2FC,Gene 2562,-0.025
same,GAS1 log2FC,Gene 2619,0.756
same,GAS2 log2FC,Gene 2620,0.149
same,GATA1 log2FC,Gene 2623,-0.018
same,GATA3 log2FC,Gene 2625,-0.114
same,GDNF log2FC,Gene 2668,-0.175
same,B4GALT1 log2FC,Gene 2683,0.192
same,GJA1 log2FC,Gene 2697,-0.613
same,GCLC log2FC,Gene 2729,0.812
same,GLI3 log2FC,Gene 2737,0.540
same,GLO1 log2FC,Gene 2739,-0.070
same,GML log2FC,Gene 2765,-0.071
same,GNB1 log2FC,Gene 2782,-0.085
same,GNGT1 log2FC,Gene 2792,-0.037
same,GNRH1 log2FC,Gene 2796,0.097
same,SFN log2FC,Gene 2810,-1.150
same,GPLD1 log2FC,Gene 2822,-0.157
same,CXCR3 log2FC,Gene 2833,-0.474
same,GRK5 log2FC,Gene 2869,-0.059
same,MKNK2 log2FC,Gene 2872,-0.826
same,GPX1 log2FC,Gene 2876,0.431
same,GRID2 log2FC,Gene 2895,-0.052
same,GRIK2 log2FC,Gene 2898,0.091
same,GRIK5 log2FC,Gene 2901,-0.101
same,GRIN1 log2FC,Gene 2902,-0.444
same,GRIN2A log2FC,Gene 2903,-0.041
same,NR3C1 log2FC,Gene 2908,1.042
same,GRM4 log2FC,Gene 2914,-0.029
same,PDIA3 log2FC,Gene 2923,-0.085
same,GSK3A log2FC,Gene 2931,-0.030
same,GSK3B log2FC,Gene 2932,-0.455
same,GSN log2FC,Gene 2934,0.174
same,GSTP1 log2FC,Gene 2950,0.117
same,MSH6 log2FC,Gene 2956,-0.075
same,GZMH log2FC,Gene 2999,-0.148
same,GZMA log2FC,Gene 3001,-0.034
same,GZMB log2FC,Gene 3002,-0.002
same,GZMM log2FC,Gene 3004,-0.381
same,H1F0 log2FC,Gene 3005,0.834
same,HCK log2FC,Gene 3055,-0.033
same,HDAC1 log2FC,Gene 3065,-0.547
same,HDAC2 log2FC,Gene 3066,0.060
same,HELLS log2FC,Gene 3070,0.140
same,NCKAP1L log2FC,Gene 3071,0.054
same,HGF log2FC,Gene 3082,-0.198
same,NRG1 log2FC,Gene 3084,-1.164
same,HIC1 log2FC,Gene 3090,-0.122
same,HIF1A log2FC,Gene 3091,0.019
same,HIP1 log2FC,Gene 3092,-0.167
same,HINT1 log2FC,Gene 3094,0.210
same,HK2 log2FC,Gene 3099,-1.428
same,HMGB1 log2FC,Gene 3146,0.343
same,HMGB2 log2FC,Gene 3148,1.070
same,HMGCR log2FC,Gene 3156,0.051
same,HMOX1 log2FC,Gene 3162,1.050
same,NR4A1 log2FC,Gene 3164,-0.484
same,HOXA5 log2FC,Gene 3202,0.436
same,HOXA13 log2FC,Gene 3209,0.042
same,HRAS log2FC,Gene 3265,-0.758
same,HRG log2FC,Gene 3273,-0.015
same,PRMT2 log2FC,Gene 3275,0.289
same,HSPA1A log2FC,Gene 3303,-2.361
same,HSPA5 log2FC,Gene 3309,-0.793
same,HSPB1 log2FC,Gene 3315,-0.135
same,HSP90AA1 log2FC,Gene 3320,0.717
same,HSP90AB1 log2FC,Gene 3326,-0.430
